Laboratory results reported in US12441718B2, “Selective angiotensin II compounds” (VICORE PHARMA AB, priority 2021, dated 2025).
pIC50, pKi: −log10 of the molar value. “And” between values parts separate entries of the source, which are not always exact repeats. Equal entries are not always repeated. Where two headings read alike, the source gives them in different places.

Columns and labels:
[1] = biological target: T1, human recombinant AT2 receptor (Homo sapiens, UniProt P50052); assay: Binding to AT2 receptor, radiometric scintillation assay (Eurofins ITEM26); settings: ligand 125I CGP 42112A, * rows = mean of runs; for pKi: seven-point dose-response curve; for pIC50: test compounds at 1, 10, 100 and 1000 nM, read-out: AT2 GraFit IC50
T1 construct: purchased Eurofins ITEM26 (protocol number)
T1 sequence (P50052 1-363): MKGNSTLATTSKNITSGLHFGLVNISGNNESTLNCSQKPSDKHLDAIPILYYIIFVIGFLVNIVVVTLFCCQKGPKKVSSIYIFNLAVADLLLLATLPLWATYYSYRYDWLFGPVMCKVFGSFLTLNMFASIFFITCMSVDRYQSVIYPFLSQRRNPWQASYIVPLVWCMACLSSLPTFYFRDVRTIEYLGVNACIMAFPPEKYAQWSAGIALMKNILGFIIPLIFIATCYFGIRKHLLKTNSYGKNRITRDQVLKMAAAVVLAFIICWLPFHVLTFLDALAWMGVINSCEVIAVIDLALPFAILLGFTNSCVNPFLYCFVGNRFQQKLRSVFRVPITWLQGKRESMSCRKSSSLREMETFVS

CYP2B6 = biological target: T2, CYP2B6 (Homo sapiens, UniProt P20813); assay: CYP inhibition in human liver microsomes (Eurofins ITEMG232); assay type: in vitro ADME; settings: probe bupropion, substrate bupropion, read-out: CYP2B6 Inh %
T2 construct: isoform-specific substrates incubated with human liver microsomes; tissue Eurofins ITEMG232 (protocol number); host or cells: human liver microsomes
T2 sequence (P20813 1-491): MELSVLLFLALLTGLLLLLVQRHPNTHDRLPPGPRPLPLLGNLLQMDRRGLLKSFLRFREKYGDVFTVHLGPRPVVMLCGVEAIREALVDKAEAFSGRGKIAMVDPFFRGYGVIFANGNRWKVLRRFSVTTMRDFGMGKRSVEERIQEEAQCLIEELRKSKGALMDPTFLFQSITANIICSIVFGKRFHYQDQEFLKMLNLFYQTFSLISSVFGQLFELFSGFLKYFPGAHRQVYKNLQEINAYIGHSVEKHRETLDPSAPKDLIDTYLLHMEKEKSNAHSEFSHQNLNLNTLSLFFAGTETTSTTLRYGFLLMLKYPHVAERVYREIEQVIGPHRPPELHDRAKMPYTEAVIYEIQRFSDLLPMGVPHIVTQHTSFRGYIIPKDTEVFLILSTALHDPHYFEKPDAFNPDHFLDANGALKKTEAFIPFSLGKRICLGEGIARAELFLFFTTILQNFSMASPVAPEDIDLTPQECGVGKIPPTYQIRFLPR

CYP2D6 = biological target: T3, CYP2D6 (Homo sapiens, UniProt P10635); assay: as above; assay type: in vitro ADME; settings: probe dextromethorphan, substrate dextromethorphan, read-out: CYP2D6 Inh %
T3 construct: isoform-specific substrates incubated with human liver microsomes; tissue Eurofins ITEMG232 (protocol number); host or cells: human liver microsomes

CYP3A4&5 = assay: in vitro; settings: human, human liver microsomes, probe testosterone;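 further: Read-out is the metabolite generated from the probe substrate, quantified as HPLC-MS/MS peak area once incubation ends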
CYP2C9 = CYP2C9 (Homo sapiens, UniProt P11712); assay: CYP inhibition in human liver microsomes (Eurofins ITEMG232); assay type: in vitro ADME; design: isoform-specific substrates incubated with human liver microsomes; tissue Eurofins ITEMG232 (protocol number); host or cells: human liver microsomes; settings: substrate diclofenac; for inhibition at 10 µM: human, probe diclofenac, read-out: CYP2C9 Inh %
CYP2C19 = biological target: T4, CYP2C19 (Homo sapiens, UniProt P33261); assay: as above; assay type: in vitro ADME; settings: substrate omeprazole; for inhibition at 10 µM: human, probe omeprazole, read-out: CYP2C19 Inh %
T4 construct: isoform-specific substrates incubated with human liver microsomes; tissue Eurofins ITEMG232 (protocol number); host or cells: human liver microsomes

CYP1A2 = biological target: T5, CYP1A2 (Homo sapiens, UniProt P05177); assay: in vitro; assay type: in vitro ADME; settings: human liver microsomes, substrate phenacetin; for inhibition at 10 µM: human, microsomes, read-out: CYP1A2 Inh %
T5 construct: isoform-specific substrates incubated with human liver microsomes; tissue Eurofins ITEMG232 (protocol number); host or cells: human liver microsomes
Description: The following substrates were used; CYP1A phenacetin, CYP2B36 bupropion, CYP2C8 paclitaxel and amodiaquine, CYP2C9 diclofenac, CYP2C19 omeprazole, CYP2D6 dextromethorphan, CYP3A midazolam and testosterone.
At the end of the incubation, the formation of metabolite was monitored by HPLC-MS/MS as the peak area response.

CYP2C8 = biological target: T6, CYP2C8 (Homo sapiens, UniProt P10632); assay: CYP inhibition in human liver microsomes (Eurofins ITEMG232); assay type: in vitro ADME; settings: substrate paclitaxel and amodiaquine; for inhibition at 10 µM: human, probe paclitaxel and amodiaquine, read-out: CYP2C8 Inh %
T6 construct: isoform-specific substrates incubated with human liver microsomes; tissue Eurofins ITEMG232 (protocol number); host or cells: human liver microsomes
T6 sequence (P10632 1-490): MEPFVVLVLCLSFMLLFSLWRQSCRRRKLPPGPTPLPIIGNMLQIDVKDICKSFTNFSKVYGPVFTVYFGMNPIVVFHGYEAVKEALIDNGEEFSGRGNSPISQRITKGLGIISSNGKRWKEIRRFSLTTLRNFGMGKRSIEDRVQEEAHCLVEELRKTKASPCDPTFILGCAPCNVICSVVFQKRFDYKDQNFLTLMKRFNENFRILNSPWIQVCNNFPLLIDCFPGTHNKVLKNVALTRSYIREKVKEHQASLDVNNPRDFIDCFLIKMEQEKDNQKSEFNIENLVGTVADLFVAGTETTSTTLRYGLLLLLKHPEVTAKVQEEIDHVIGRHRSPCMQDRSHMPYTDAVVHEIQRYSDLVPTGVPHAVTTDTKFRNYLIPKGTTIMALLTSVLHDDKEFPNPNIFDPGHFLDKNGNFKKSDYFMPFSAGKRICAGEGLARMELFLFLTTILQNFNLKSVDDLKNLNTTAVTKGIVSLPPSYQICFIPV

[2] = Metabolic stability in pooled human liver microsomes; assay type: in vitro ADME; settings: human, pooled human liver microsomes, pooled human liver microsomes 0.5 mg/mL, 1 μM test compound, 37° C., * rows = mean of two runs
Description: Pooled human liver microsomes in PBS at a concentration of 0.5 mg/mL was incubated with or without 1 mM NADPH for 70 min at 37° C. Test compound was added after 10 minutes to a final concentration of 1 μM. Samples were withdrawn at 0, 5, 15 and 60 minutes and added to test tubes containing acetonitrile, to stop the reaction, and with terfenadine, used as internal standard. After centrifugation at 10 000×g for 5 minutes the supernatant was diluted 1:1 with 1% formic acid. Samples were separated on a reverse phase column and detected by triple quadrupole MSMS (Agilant model 6540). The concentration of the parent compound at the different time points was measured with an external standard curve using terfenadine as internal standard and the initial metabolic rate in the presence or absence of NADPH calculated.

CYP3A4 = CYP3A4 (Homo sapiens, UniProt P08684); assay: CYP inhibition in human liver microsomes (Eurofins ITEMG232), midazolam substrate; assay type: in vitro ADME; design: isoform-specific substrates incubated with human liver microsomes; tissue Eurofins ITEMG232 (protocol number); host or cells: human liver microsomes; settings: for inhibition at 10 µM: human, probe midazolam, read-out: CYP3A4 midazolam Inh %
[3] = with 1 mM NADPH, read-out: T1/2, + NaDPH
[4] = without NADPH, read-out: T1/2, no NaDPH

T5 sequence (P05177 whole entry, canonical isoform): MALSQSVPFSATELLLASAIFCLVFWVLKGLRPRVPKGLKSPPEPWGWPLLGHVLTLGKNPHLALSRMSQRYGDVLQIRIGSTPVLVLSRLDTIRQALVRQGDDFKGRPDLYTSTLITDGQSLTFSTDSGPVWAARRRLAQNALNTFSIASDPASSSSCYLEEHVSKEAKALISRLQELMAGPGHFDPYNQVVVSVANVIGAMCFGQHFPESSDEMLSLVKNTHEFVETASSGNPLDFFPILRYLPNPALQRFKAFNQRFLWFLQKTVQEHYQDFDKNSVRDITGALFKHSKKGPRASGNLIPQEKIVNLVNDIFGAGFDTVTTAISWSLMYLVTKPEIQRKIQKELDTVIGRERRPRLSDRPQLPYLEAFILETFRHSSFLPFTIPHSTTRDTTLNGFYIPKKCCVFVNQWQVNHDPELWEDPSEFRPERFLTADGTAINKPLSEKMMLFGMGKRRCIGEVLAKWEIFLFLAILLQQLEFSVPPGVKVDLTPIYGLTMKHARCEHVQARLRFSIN
Chain of CYP2C9 (P11712 whole entry, canonical isoform): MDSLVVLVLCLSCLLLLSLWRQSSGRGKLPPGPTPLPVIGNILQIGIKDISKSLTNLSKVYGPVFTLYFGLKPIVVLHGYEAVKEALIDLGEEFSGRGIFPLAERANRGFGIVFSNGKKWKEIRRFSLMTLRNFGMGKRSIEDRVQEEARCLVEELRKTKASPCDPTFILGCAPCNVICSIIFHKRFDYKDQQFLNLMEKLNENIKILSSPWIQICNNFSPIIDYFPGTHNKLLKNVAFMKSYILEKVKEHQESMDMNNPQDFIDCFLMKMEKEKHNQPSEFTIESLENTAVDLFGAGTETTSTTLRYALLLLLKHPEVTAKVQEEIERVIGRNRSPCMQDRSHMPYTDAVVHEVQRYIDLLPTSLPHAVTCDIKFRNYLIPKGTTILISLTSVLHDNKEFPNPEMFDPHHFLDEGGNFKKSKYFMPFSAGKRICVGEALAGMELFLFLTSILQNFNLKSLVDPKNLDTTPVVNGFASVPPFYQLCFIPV
T3 sequence (P10635 whole entry, canonical isoform): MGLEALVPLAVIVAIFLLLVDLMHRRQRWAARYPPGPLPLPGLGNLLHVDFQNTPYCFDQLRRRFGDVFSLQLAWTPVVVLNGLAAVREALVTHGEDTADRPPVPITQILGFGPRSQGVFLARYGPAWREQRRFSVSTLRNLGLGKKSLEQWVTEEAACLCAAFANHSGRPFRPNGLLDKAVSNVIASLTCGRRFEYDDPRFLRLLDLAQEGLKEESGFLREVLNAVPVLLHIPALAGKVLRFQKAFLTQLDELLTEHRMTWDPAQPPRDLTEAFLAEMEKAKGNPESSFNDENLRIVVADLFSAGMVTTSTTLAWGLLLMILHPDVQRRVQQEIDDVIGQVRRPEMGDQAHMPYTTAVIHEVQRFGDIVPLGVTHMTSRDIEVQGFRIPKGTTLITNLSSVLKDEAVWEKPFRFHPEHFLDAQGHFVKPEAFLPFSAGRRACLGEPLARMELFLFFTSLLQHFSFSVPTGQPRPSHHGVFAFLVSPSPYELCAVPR
T4 sequence (P33261 whole entry, canonical isoform): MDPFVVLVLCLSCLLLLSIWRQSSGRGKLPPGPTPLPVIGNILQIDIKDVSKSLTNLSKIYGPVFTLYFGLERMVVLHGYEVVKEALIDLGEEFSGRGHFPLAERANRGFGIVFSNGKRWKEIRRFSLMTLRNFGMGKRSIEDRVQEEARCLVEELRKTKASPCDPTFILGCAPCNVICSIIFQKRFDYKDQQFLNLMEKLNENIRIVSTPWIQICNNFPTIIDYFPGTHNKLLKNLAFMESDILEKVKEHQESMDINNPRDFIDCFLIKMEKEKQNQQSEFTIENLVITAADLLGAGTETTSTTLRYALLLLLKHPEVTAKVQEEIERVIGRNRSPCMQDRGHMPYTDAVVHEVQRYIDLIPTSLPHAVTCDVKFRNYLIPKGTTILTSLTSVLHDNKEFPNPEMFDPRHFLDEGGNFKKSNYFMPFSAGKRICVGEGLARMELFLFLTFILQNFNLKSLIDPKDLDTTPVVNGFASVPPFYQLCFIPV
Chain of CYP3A4 (P08684 whole entry, canonical isoform): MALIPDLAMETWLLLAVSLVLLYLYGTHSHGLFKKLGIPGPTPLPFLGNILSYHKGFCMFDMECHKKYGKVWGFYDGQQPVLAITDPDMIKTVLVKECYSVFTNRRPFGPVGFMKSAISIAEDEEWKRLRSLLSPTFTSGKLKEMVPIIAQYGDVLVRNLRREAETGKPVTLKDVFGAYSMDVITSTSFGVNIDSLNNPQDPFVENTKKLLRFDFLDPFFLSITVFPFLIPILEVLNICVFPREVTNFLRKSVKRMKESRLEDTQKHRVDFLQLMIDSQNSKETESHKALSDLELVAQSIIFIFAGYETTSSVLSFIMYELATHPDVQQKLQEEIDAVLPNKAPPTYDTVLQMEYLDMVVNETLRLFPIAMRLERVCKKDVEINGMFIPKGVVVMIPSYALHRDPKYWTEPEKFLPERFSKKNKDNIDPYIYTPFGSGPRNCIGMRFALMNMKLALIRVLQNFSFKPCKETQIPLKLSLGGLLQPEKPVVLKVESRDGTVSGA

pKi [1]	pIC50 [1]	inhibition at 10 µM (CYP2B6) [%]	inhibition at 10 µM (CYP2D6) [%]	inhibition at 10 µM (CYP3A4&5) [%]	inhibition at 10 µM (CYP2C9) [%]	inhibition at 10 µM (CYP2C19) [%]	inhibition at 10 µM (CYP1A2) [%]	inhibition at 10 µM (CYP2C8) [%]	half-life at 1 μM [2, 3] [h]	half-life at 1 μM [2, 4] [h]	inhibition at 10 µM (CYP3A4) [%]	CYP2C9 Inh % (CYP2C9; 10 μM)	CYP2C19 Inh % (CYP2C19; 10 μM)	CYP1A2 Inh % (CYP1A2; 10 μM)	CYP2C8 Inh % (CYP2C8; 10 μM)	CYP3A4 midazolam Inh % (CYP3A4; 10 μM)	Structure (SMILES)
		56.5	44.5	56	72.9	70.1	19.2	92.1	0.717	> 1	-11.4						CC(C)Cc1ccc(S(=O)(=O)Nc2nccs2)c(-c2ccc(Cn3ccnc3C(C)(C)C)cc2)c1 [Example 5, 4′-((2-(tert-Butyl)-1H-imidazol-1-yl)methyl)-5-isobutyl-N-(thiazol-2-yl)-[1,1′-biphenyl]-2-sulfonamide]
		40.4	16.4	97.9	90.8	87.8	9.7	59.7	0.117	> 1	98.4						COc1ncncc1NS(=O)(=O)c1ccc(CC(C)C)cc1-c1ccc(Cn2ccnc2C(C)(C)C)cc1 [Example 18, 4′-((2-(tert-Butyl)-1H-imidazol-1-yl)methyl)-5-isobutyl-N-(4-methoxypyrimidin-5-yl)-[1,1′-biphenyl]-2-sulfonamide]
		14	5.7	3.3	46	37	84	88.7	> 1	> 1	36						CC(C)Cc1ccc(S(=O)(=O)Nc2ncc(Cl)cn2)c(-c2ccc(Cn3ccnc3C(C)(C)C)cc2)c1 [Example 2, 4′-((2-(tert-Butyl)-1H-imidazol-1-yl)methyl)-N-(5-chloropyrimidin-2-yl)-5-isobutyl-[1,1′-biphenyl]-2-sulfonamide]
												37.1% and 71.9%	38.6% and 66.6%	36.2% and 65.6%	49.2% and 95.6%	28.2% and 48.5%	CC(C)Cc1ccc(S(=O)(=O)Nc2ncc(C#N)cn2)c(-c2ccc(Cn3ccnc3C(C)(C)C)cc2)c1 [Example 6, 4′-((2-(tert-Butyl)-1H-imidazol-1-yl)methyl)-N-(5-cyanopyrimidin-2-yl)-5-isobutyl-[1,1′-biphenyl]-2-sulfonamide]
		27.5	45.2	63	87.6	74.8	21.7	54.3	0.15	> 1	73						COc1ncnc(OC)c1NS(=O)(=O)c1ccc(CC(C)C)cc1-c1ccc(Cn2ccnc2C(C)(C)C)cc1 [Example 19, 4′-((2-(tert-Butyl)-1H-imidazol-1-yl)methyl)-N-(4,6-dimethoxypyrimidin-5-yl)-5-isobutyl-[1,1′-biphenyl]-2-sulfonamide]

Continued, compound first:

Structure (SMILES)	pKi [1]	pIC50 [1]	inhibition at 10 µM (CYP2B6) [%]	inhibition at 10 µM (CYP2D6) [%]	inhibition at 10 µM (CYP3A4&5) [%]	inhibition at 10 µM (CYP2C9) [%]	inhibition at 10 µM (CYP2C19) [%]	inhibition at 10 µM (CYP1A2) [%]	inhibition at 10 µM (CYP2C8) [%]	half-life at 1 μM [2, 3] [h]	half-life at 1 μM [2, 4] [h]	inhibition at 10 µM (CYP3A4) [%]	CYP2C9 Inh % (CYP2C9; 10 μM)	CYP2C19 Inh % (CYP2C19; 10 μM)	CYP1A2 Inh % (CYP1A2; 10 μM)	CYP2C8 Inh % (CYP2C8; 10 μM)	CYP3A4 midazolam Inh % (CYP3A4; 10 μM)
Cc1cnc(NS(=O)(=O)c2ccc(CC(C)C)cc2-c2ccc(Cn3ccnc3C(C)(C)C)c(F)c2)nc1 [Example 26, 4′-((2-(tert-Butyl)-1H-imidazol-1-yl)methyl)-3′-fluoro-5-isobutyl-N-(5-methylpyrimidin-2-yl)-[1,1′-biphenyl]-2-sulfonamide]	8.77	9.08	16.9	44.1	34.9	66.4	46.5	10.3	9.9	0.733	> 1	48.7					
CC(C)Cc1ccc(S(=O)(=O)Nc2ncc(Cl)cn2)c(-c2ccc(Cn3ccnc3C(C)(C)C)c(F)c2)c1 [Example 10, 4′-((2-(tert-Butyl)-1H-imidazol-1-yl)methyl)-N-(5-chloropyrimidin-2-yl)-3′-fluoro-5-isobutyl-[1,1′-biphenyl]-2-sulfonamide]	8.82	8.52	58.3	31.9	-17.5	87	55.3	37.7	93.2	> 1	> 1	32.1					
CCc1nccn1Cc1ccc(-c2cc(CC(C)C)sc2S(=O)(=O)Nc2ncccn2)cc1F [Example 45, 3-(4-((2-Ethyl-1H-imidazol-1-yl)methyl)-3-fluorophenyl)-5-isobutyl-N-(pyrimidin-2-yl)thiophene-2-sulfonamide]			16	13	62	20	65	54	64	> 1	> 1	15					
Cc1nccn1Cc1ccc(-c2cc(CC(C)C)sc2S(=O)(=O)Nc2ncccn2)cc1F [Example 44, 3-(3-Fluoro-4-((2-methyl-1H-imidazol-1-yl)methyl)phenyl)-5-isobutyl-N-(pyrimidin-2-yl)thiophene-2-sulfonamide]			14	9	67	30	64	33	43	> 1	> 1	35					
